Patent US20240368135A1 (VERTEX PHARMACEUTICALS INCORPORATED, priority 2021, published 2024)
pIC50: −log10 of the molar value.

molecular target: human NaV 1.8 (Homo sapiens, UniProt Q9Y5Y9); test: E-VIPR assay detecting and measuring NaV inhibition properties; assay type: cell-based; conditions: HEK cells expressing truncated human NaV 1.8; in the presence of human serum (compound numbers followed by *); read-out: IC50 in the E-VIPR Assay, performed in the presence of human serum
Outline: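 HEK cells expressing truncated, fully active human NaV1.8, with KIR2.1 BacMam co-transduction, were loaded with CC2-DMPE/DiSBAC6(3) voltage-sensing dyes for 20 min at room temperature. Compounds were tested in 11-point 3-fold dilutions (300 nM top final), optionally with 25% human serum, under electrical stimulation with FRET read-out.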

Sequence of human NaV 1.8 (Q9Y5Y9 126-399 limits assumed): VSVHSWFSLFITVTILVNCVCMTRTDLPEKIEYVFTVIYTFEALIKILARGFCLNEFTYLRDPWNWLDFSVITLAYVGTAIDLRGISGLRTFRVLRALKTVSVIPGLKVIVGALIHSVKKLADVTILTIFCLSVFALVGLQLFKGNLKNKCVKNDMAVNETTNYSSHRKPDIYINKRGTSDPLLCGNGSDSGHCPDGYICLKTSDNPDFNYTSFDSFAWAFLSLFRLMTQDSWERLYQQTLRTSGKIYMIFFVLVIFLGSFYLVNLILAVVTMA
Sequence of human NaV 1.8 (Q9Y5Y9 660-890 limits assumed): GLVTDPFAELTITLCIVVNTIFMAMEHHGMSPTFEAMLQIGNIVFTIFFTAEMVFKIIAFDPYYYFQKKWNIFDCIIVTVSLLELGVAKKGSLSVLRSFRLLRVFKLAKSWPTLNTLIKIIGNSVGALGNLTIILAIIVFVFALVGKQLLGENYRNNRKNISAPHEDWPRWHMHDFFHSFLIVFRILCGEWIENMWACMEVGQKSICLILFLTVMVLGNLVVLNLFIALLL
Sequence of human NaV 1.8 (Q9Y5Y9 1148-1722 limits assumed): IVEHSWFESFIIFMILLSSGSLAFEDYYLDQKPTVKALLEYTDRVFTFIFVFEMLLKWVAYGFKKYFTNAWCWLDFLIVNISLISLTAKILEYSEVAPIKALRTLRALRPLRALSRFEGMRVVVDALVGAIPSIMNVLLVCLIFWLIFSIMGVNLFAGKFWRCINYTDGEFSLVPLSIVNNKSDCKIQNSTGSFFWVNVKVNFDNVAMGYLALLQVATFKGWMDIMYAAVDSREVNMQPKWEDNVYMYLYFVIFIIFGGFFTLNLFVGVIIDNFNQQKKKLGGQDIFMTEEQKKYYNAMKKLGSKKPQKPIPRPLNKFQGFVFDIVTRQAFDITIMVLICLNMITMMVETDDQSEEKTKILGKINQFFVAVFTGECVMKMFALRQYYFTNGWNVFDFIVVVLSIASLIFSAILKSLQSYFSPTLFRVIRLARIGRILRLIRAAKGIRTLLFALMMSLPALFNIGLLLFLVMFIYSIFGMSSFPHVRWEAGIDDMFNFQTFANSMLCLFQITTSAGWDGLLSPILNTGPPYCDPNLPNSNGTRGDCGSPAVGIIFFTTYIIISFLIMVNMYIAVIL

COc1c([C@H]2C[C@@](C)(C(F)(F)F)O[C@@H]2C(=O)Nc2ccnc(C(O)CO)c2)ccc(F)c1F (single isomer, unassigned) [Compound 686] and COc1c([C@H]2C[C@@](C)(C(F)(F)F)O[C@@H]2C(=O)Nc2ccnc(C(O)CO)c2)ccc(F)c1C (single isomer, unassigned) [Compound 705] cannot be ordered by pIC50: ≤ 6.00 for the first, ≤ 6.00 for the second.

same assay, conditions: HEK cells expressing truncated human NaV 1.8; no human serum; read-out: IC50 in the E-VIPR Assay

Compared with C[C@@H](CO)COc1c([C@H]2[C@H](C(=O)Nc3ccc(C(N)=O)nc3)O[C@@](C)(C(F)(F)F)[C@H]2C)ccc(F)c1F [Compound 616, 5-((2R,3S,4S,5R)-3-(3,4-difluoro-2-((S)-3-hydroxy-2-methylpropoxy)phenyl)-4,5-dimethyl-5-(trifluoromethyl)tetrahydrofuran-2-carboxamido)picolinamide], COc1c([C@H]2[C@H](C(=O)Nc3ccc(-c4ncc[nH]4)nc3)O[C@@](C)(C(F)(F)F)[C@H]2C)ccc(F)c1F [Compound 193, (2R,3S,4S,5R)-N-(6-(1H-imidazol-2-yl)pyridin-3-yl)-3-(3,4-difluoro-2-methoxyphenyl)-4,5-dimethyl-5-(trifluoromethyl)tetrahydrofuran-2-carboxamide] is higher in pIC50: 6.00 to 7.00 for the first, 7.00 to 8.00 for the second.

Compared with C[C@H]1[C@@H](c2ccc(F)c(F)c2OC2CC(O)C2)[C@H](C(=O)Nc2cccnc2)O[C@@]1(C)C(F)(F)F (stereo partly drawn) [Compound 654, (2R,3S,4S,5R)-3-(3,4-difluoro-2-((1S,3R)-3-hydroxycyclobutoxy)phenyl)-4,5-dimethyl-N-(pyridin-3-yl)-5-(trifluoromethyl)tetrahydrofuran-2-carboxamide], COc1c(C2C(C(=O)Nc3ccncn3)OC(C)(C(F)(F)F)C2C)ccc(F)c1F (single isomer, unassigned) [Compound 35, 3-(3,4-difluoro-2-methoxy-phenyl)-4,5-dimethyl-N-pyrimidin-4-yl-5-(trifluoromethyl)tetrahydrofuran-2-carboxamide] is lower in pIC50: > 8.00 for the first, ≤ 6.00 for the second.

COc1c([C@H]2[C@H](C(=O)Nc3ccnc(N4CCC[C@@H]4CO)c3)O[C@@](C)(C(F)(F)F)[C@H]2C)ccc(F)c1F [Compound 520, (2R,3S,4S,5R)-3-(3,4-difluoro-2-methoxy-phenyl)-N-[2-[(2R)-2-(hydroxymethyl)pyrrolidin-1-yl]-4-pyridyl]-4,5-dimethyl-5-(trifluoromethyl)tetrahydrofuran-2-carboxamide] and COc1c([C@H]2[C@H](C(=O)Nc3ccnc(N4C[C@@H]5C[C@H](C4=O)N5C)c3)O[C@@](C)(C(F)(F)F)[C@H]2C)ccc(F)c1F (single isomer, unassigned) [Compound 510, rel-(2R*,3S*,4S*,5R*)-3-(3,4-difluoro-2-methoxyphenyl)-4,5-dimethyl-N-(2-((1R,5S)-6-methyl-2-oxo-3,6-diazabicyclo[3.1.1]heptan-3-yl)pyridin-4-yl)-5-(trifluoromethyl)tetrahydrofuran-2-carboxamide] fall in the same range of pIC50: 7.00 to 8.00 for the first, 7.00 to 8.00 for the second.

First: Cc1nn(S(C)(=O)=O)cc1NC(=O)[C@@H]1O[C@@](C)(C(F)(F)F)[C@@H](C)[C@H]1c1ccc(F)c(F)c1OCCO [Compound 538, (2R,3S,4S,5R)-3-(3,4-difluoro-2-(2-hydroxyethoxy)phenyl)-4,5-dimethyl-N-(3-methyl-1-(methylsulfonyl)-1H-pyrazol-4-yl)-5-(trifluoromethyl)tetrahydrofuran-2-carboxamide]
Second: Cc1nn(C(F)F)cc1NC(=O)[C@@H]1O[C@@](C)(C(F)(F)F)[C@@H](C)[C@H]1c1ccc(F)c(F)c1OCC(N)=O [Compound 605, (2R,3S,4S,5R)-3-(2-(2-amino-2-oxoethoxy)-3,4-difluorophenyl)-N-(1-(difluoromethyl)-3-methyl-1H-pyrazol-4-yl)-4,5-dimethyl-5-(trifluoromethyl)tetrahydrofuran-2-carboxamide]
The pIC50 of the first is higher: > 8.00 for the first, 7.00 to 8.00 for the second. The first is the more potent here.

Compared with C[C@@H]1[C@H](c2ccc(F)c(F)c2)[C@@H](C(=O)Nc2ccnc(S(C)(=O)=O)c2)O[C@]1(C)C(F)(F)F (stereo in doubt) [Compound 154, rel-(2S,3R,4R,5S)-3-(3,4-difluorophenyl)-4,5-dimethyl-N-(2-(methylsulfonyl)pyridin-4-yl)-5-(trifluoromethyl)tetrahydrofuran-2-carboxamide], Cc1c(F)ccc(C2C(C(=O)Nc3ccnc(S(C)(=O)=O)c3)OC(C)(C(F)(F)F)C2C)c1OC(F)F (centres unmarked) [Compound 97, 3-[2-(difluoromethoxy)-4-fluoro-3-methyl-phenyl]-4,5-dimethyl-N-(2-methylsulfonyl-4-pyridyl)-5-(trifluoromethyl)tetrahydrofuran-2-carboxamide] is higher in pIC50: ≤ 6.00 for the first, > 8.00 for the second. The second is the more potent here.

COc1c([C@H]2[C@H](C(=O)Nc3ccnc(S(C)(=N)=O)c3)O[C@@](C)(C(F)(F)F)[C@H]2C)ccc(F)c1C (relative stereo) [Compound 151, rel-(2R,3S,4S,5R)-3-(4-fluoro-2-methoxy-3-methylphenyl)-4,5-dimethyl-N-(2-(S-methylsulfonimidoyl)pyridin-4-yl)-5-(trifluoromethyl)tetrahydrofuran-2-carboxamide] and CN=S(C)(=O)c1cc(NC(=O)C2OC(C)(C(F)(F)F)C(C)C2c2ccc(F)c(C)c2OC)ccn1 (centres unmarked) [Compound 152, N-[2-(N,S-dimethylsulfonimidoyl)-4-pyridyl]-3-(4-fluoro-2-methoxy-3-methyl-phenyl)-4,5-dimethyl-5-(trifluoromethyl)tetrahydrofuran-2-carboxamide] cannot be ordered by pIC50: > 8.00 for the first, > 8.00 for the second.

C[C@H]1[C@@H](c2ccc(F)c(F)c2OCCO)[C@H](C(=O)Nc2cncs2)O[C@@]1(C)C(F)(F)F [Compound 555, (2R,3S,4S,5R)-3-(3,4-difluoro-2-(2-hydroxyethoxy)phenyl)-4,5-dimethyl-N-(thiazol-5-yl)-5-(trifluoromethyl)tetrahydrofuran-2-carboxamide] and C[C@H]1[C@@H](c2ccc(F)c(F)c2OCCO)[C@H](C(=O)Nc2ccc3nncn3c2)O[C@@]1(C)C(F)(F)F [Compound 548] fall in the same range of pIC50: 7.00 to 8.00 for the first, 7.00 to 8.00 for the second.

COC(=O)COc1c([C@H]2[C@H](C(=O)Nc3cn(C(F)F)nc3C)O[C@@](C)(C(F)(F)F)[C@H]2C)ccc(F)c1F [Compound 602, methyl 2-[6-[(2R,3S,4S,5R)-2-[[1-(difluoromethyl)-3-methyl-pyrazol-4-yl]carbamoyl]-4,5-dimethyl-5-(trifluoromethyl)tetrahydrofuran-3-yl]-2,3-difluoro-phenoxy]acetate] and Cc1nn(C(F)F)cc1NC(=O)[C@@H]1O[C@@](C)(C(F)(F)F)[C@@H](C)[C@H]1c1ccc(F)c(F)c1OCc1cn[nH]c1 [Compound 599, (2R,3S,4S,5R)-N-[1-(difluoromethyl)-3-methyl-pyrazol-4-yl]-3-[3,4-difluoro-2-(1H-pyrazol-4-ylmethoxy)phenyl]-4,5-dimethyl-5-(trifluoromethyl)tetrahydrofuran-2-carboxamide] cannot be ordered by pIC50: > 8.00 for the first, > 8.00 for the second.

C[C@H]1[C@@H](c2ccc(F)c(F)c2OC(F)F)[C@H](C(=O)Nc2ccnc(CO)c2)O[C@@]1(C)C(F)(F)F (single isomer, unassigned) [Compound 92] and Cc1c(F)ccc([C@H]2[C@H](C(=O)Nc3ccn(C)c(=O)c3)O[C@@](C)(C(F)(F)F)[C@H]2C)c1OC(F)F (stereo in doubt) [Compound 100, rel-(2R,3S,4S,5R)-3-(2-(difluoromethoxy)-4-fluoro-3-methylphenyl)-4,5-dimethyl-N-(1-methyl-2-oxo-1,2-dihydropyridin-4-yl)-5-(trifluoromethyl)tetrahydrofuran-2-carboxamide] cannot be ordered by pIC50: > 8.00 for the first, > 8.00 for the second.

Compared with COc1c([C@@H]2[C@@H](C(=O)Nc3cncc(S(=O)(=O)N(C)C)c3)O[C@](C)(C(F)(F)F)[C@@H]2C)ccc(F)c1F (stereo in doubt) [Compound 452, rel-(2S,3R,4R,5S)-3-(3,4-difluoro-2-methoxyphenyl)-N-(5-(N,N-dimethylsulfamoyl)pyridin-3-yl)-4,5-dimethyl-5-(trifluoromethyl)tetrahydrofuran-2-carboxamide], CN=S(C)(=O)c1cc(NC(=O)C2OC(C)(C(F)(F)F)C(C)C2c2ccc(F)c(F)c2OC)ccn1 (single isomer, unassigned) [Compound 530, 3-(3,4-difluoro-2-methoxy-phenyl)-N-[2-(N,S-dimethylsulfonimidoyl)-4-pyridyl]-4,5-dimethyl-5-(trifluoromethyl)tetrahydrofuran-2-carboxamide] is higher in pIC50: ≤ 6.00 for the first, > 8.00 for the second. The second is the more potent here.

COc1c([C@H]2[C@H](C(=O)NC(C)C(N)=O)O[C@@](C)(C(F)(F)F)[C@H]2C)ccc(F)c1F (stereo partly drawn) [Compound 271, (2R,3S,4S,5R)-N-(1-amino-1-oxopropan-2-yl)-3-(3,4-difluoro-2-methoxyphenyl)-4,5-dimethyl-5-(trifluoromethyl)tetrahydrofuran-2-carboxamide] and COCC1(CNC(=O)[C@@H]2O[C@@](C)(C(F)(F)F)[C@@H](C)[C@H]2c2ccc(F)c(F)c2OC)CCC1 [Compound 276, (2R,3S,4S,5R)-3-(3,4-difluoro-2-methoxyphenyl)-N-((1-(methoxymethyl)cyclobutyl)methyl)-4,5-dimethyl-5-(trifluoromethyl)tetrahydrofuran-2-carboxamide] cannot be ordered by pIC50: ≤ 6.00 for the first, ≤ 6.00 for the second.

CCOc1c([C@@H]2C[C@](C)(C(F)(F)F)O[C@H]2C(=O)Nc2ccnc(C(O)CO)c2)ccc(F)c1F (single isomer, unassigned) [Compound 710] and COc1c([C@H]2[C@H](C(=O)Nc3cc(C(C)(O)CF)ncn3)O[C@@](C)(C(F)(F)F)[C@H]2C)ccc(F)c1F (single isomer, unassigned) [Compound 228, rel-(2R*,3S*,4S*,5R*)-3-(3,4-difluoro-2-methoxyphenyl)-N-(6-(1-fluoro-2-hydroxypropan-2-yl)pyrimidin-4-yl)-4,5-dimethyl-5-(trifluoromethyl)tetrahydrofuran-2-carboxamide] fall in the same range of pIC50: 7.00 to 8.00 for the first, 7.00 to 8.00 for the second.
